Test results published in PubChem BioAssay AID2060906 (Molecular Pharmacology Branch, DTP, NCI, 2025).

Tested on: 485176-168-R4-J1-PDC complex spheroid growth
Assay: Anticancer human tumor 485176-168-R4-J1-PDC patient-derived pancreatic adenocarcinoma cell line growth inhibition [RAS]
Conditions: for IC50: curve of first compound; for viability, T/C: stronger effect = lower value; active = viability on the fitted dose curve at most 10% of control; inactive = the rest
Description: RAS pathway inhibitors in Combinations in Complex Spheroids
A high-throughput screen of multi-cell type tumor spheroids was designed to identify active combinations of RAS pathway inhibitors and targeted small molecules. Complex spheroids include a stromal component modeled by human endothelial cells (HUVEC) and fibroblasts modeled by human mesenchymal stem cells (MSCs). The concentration ranges selected for each drug and investigational agent were based upon clinically achievable concentrations if the clinical Cmax of the agent was known.
Compounds. The drugs and investigational agents: abemaciclib (NSC768073), cobimetinib (NSC768068), divarasib (GDC6063, NSC841802), docetaxel (NSC628503), GDC-1971 (RLY-1971, NSC841576), gemcitabine (NSC613327), inavolisib (NSC800729), ipatasertib (NSC767898), KB-0742 (NSC834161), MRTX-1133 (NSC836407), osimertinib (NSC779217), RMC-4630 (NSC839698), RMC-6236 (NSC851965), RMC-6291 (NSC852671), Ro-3306 (NSC812927), sapanisertib (NSC764658), SN-38 (NSC673596), staurosporine (NSC755774), SY5609 (NSC837396), and tovorafenib (DAY101, NSC766906), were obtained from the National Cancer Institute (NCI) Developmental Therapeutics Program Chemical Repository. The FDA-approved anticancer drug set is available from the NCI Developmental Therapeutics Program. […] The stock solutions were prepared in dimethyl sulfoxide (DMSO, Sigma-Aldrich, St. Louis, MO, cat. D2650) at 800-fold the tested concentration and stored at -70 degrees C prior to their use. All drugs and investigational agents were tested over a range starting from a high concentration at or near the clinical Cmax and decreasing in half-log increments. If the clinical Cmax for an agent had not been determined, the highest concentration tested was 10 microM.
Cell Culture. All cells were maintained in an incubator at 37 degrees C and 5% CO2 with 95% humidity. The PDC lines were cultured according to standard operating procedures established by the NCI PDMR. All PDCs were thawed and cultured in Matrigel-coated flasks prepared with a working solution of 1X Ham's F-12 nutrient mix, without supplementation (Invitrogen, Waltham, MA, cat. 11765054), 100 U/mL penicillin-streptomycin (Invitrogen, cat. 15140122), and 2.5% Matrigel (Corning Inc., Corning, NY, cat. 354248) for the first three passages. The 362531-283-R-J2-PDC and 782815-120-R-J1-PDC lines were cultured in 6C/Colon 1B media, which includes advanced DMEM/F-12 (Thermo Fisher Scientific, cat. 12634028), 10 mM HEPES (Thermo Fisher Scientific, cat. 15630080), 1X GlutaMAX supplement (Thermo Fisher Scientific, cat. 35050061), 0.1 mg/mL primocin (InvivoGen, San Diego, CA, cat. ant-pm-2), 10% defined fetal bovine serum, heat inactivated (HyClone Laboratories Inc., Logan, UT, cat. SH30070.03HI), 50% L-WRN conditioned media (ATCC, cat. CRL-3276), 1.25 mM N-Acetyl-L-cysteine (Sigma-Aldrich, cat. A9165), 10 mM nicotinamide (Sigma-Aldrich, cat. N0636), 1X B-27 supplement (Thermo Fisher Scientific, cat. 17504044), 1X N-2 supplement (Thermo Fisher Scientific, cat. 17502048), 50 ng/mL human EGF (Thermo Fisher Scientific, cat. PHG0311), and 10 microM Y-27632 dihydrochloride (Tocris Bioscience, cat. 1254). The K12877-001-R-J1-PDC line was cultured in 6I media, which includes all 6C/Colon 1B media plus 10 ng/mL human FGF-10 (PeproTech, cat. 100-26), 1 ng/mL human FGF-2 (PeproTech, cat. 100-18B), 1 µM prostaglandin E2 (Tocris Bioscience, cat. 2296), […] hydrocortisone (Sigma-Aldrich, cat. H4001), and […] bovine insulin (Sigma-Aldrich, cat. I6634). The K86415-001-R-J1-PDC line was cultured in 6D media, which includes all 6C/Colon 1B media components minus the L-WRN conditioned media. The 485176-168-R4-J1-PDC was cultured in PANC media, which includes all 6C/Colon 1B media plus 100 ng/mL human FGF-10 (PeproTech, cat. 100-26), 500 nM SB-431542 (Selleckchem, cat. S1067), and 10 nM gastrin (Tocris Bioscience, cat. 3006). […]

[1] = second compound 0.0316 µM, first compound 0.0316 µM
[2] = second compound 0.0316 µM, first compound 0.1 µM
[3] = second compound 0.0316 µM, first compound 0.316 µM
[4] = second compound 0.0316 µM, first compound 1 µM
[5] = second compound 0.1 µM, first compound 0.0316 µM
[6] = second compound 0.1 µM, first compound 0.1 µM
[7] = second compound 0.1 µM, first compound 0.316 µM
[8] = second compound 0.1 µM, first compound 1 µM
[9] = second compound 0.316 µM, first compound 0.0316 µM
[10] = second compound 0.316 µM, first compound 0.1 µM
[11] = second compound 0.316 µM, first compound 0.316 µM
[12] = second compound 0.316 µM, first compound 1 µM
[13] = second compound 1 µM, first compound 0.0316 µM
[14] = second compound 1 µM, first compound 0.1 µM
[15] = second compound 1 µM, first compound 0.316 µM
[16] = second compound 1 µM, first compound 1 µM
[17] = second compound 3.16 µM, first compound 0.0316 µM
[18] = second compound 3.16 µM, first compound 0.1 µM
[19] = second compound 3.16 µM, first compound 0.316 µM
[20] = second compound 3.16 µM, first compound 1 µM
[21] = second compound 10 µM, first compound 0.0316 µM
[22] = second compound 10 µM, first compound 0.1 µM
[23] = second compound 10 µM, first compound 0.316 µM
[24] = second compound 10 µM, first compound 1 µM
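Also: spheroids exposed to compounds for seven days before readout.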
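For viability, T/C in this document: luminescence viability expressed relative to DMSO vehicle wells set as 100%.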

CCN1CCN(Cc2ccc(Nc3ncc(F)c(-c4cc(F)c5nc(C)n(C(C)C)c5c4)n3)nc2)CC1 + C#Cc1c(F)ccc2cc(O)cc(-c3ncc4c(N5CC6CCC(C5)N6)nc(OCC56CCCN5CC(F)C6)nc4c3F)c12
> 1 µM: IC50 (second compound 0.0316 µM) | IC50 (second compound 0.1 µM) | IC50 (second compound 0.316 µM) | IC50 (second compound 1 µM) | IC50 (second compound 3.16 µM) | IC50 (second compound 10 µM)
inactive: viability, T/C (second compound 0.0316 µM, first compound 0.00316 µM) 91.1% | viability, T/C (second compound 0.0316 µM, first compound 0.01 µM) 83.4% | viability, T/C [1] 101% | viability, T/C [2] 100% | viability, T/C [3] 73.9% | viability, T/C [4] 64.9% | viability, T/C (second compound 0.1 µM, first compound 0.00316 µM) 117% | viability, T/C (second compound 0.1 µM, first compound 0.01 µM) 109% | viability, T/C [5] 79.7% | viability, T/C [6] 85.1% | viability, T/C [7] 78.8% | viability, T/C [8] 55.4% | viability, T/C (second compound 0.316 µM, first compound 0.00316 µM) 97.1% | viability, T/C (second compound 0.316 µM, first compound 0.01 µM) 95.6% | viability, T/C [9] 90.7% | viability, T/C [10] 104% | viability, T/C [11] 84.3% | viability, T/C [12] 63.9% | viability, T/C (second compound 1 µM, first compound 0.00316 µM) 96.8% | viability, T/C (second compound 1 µM, first compound 0.01 µM) 101% | viability, T/C [13] 101% | viability, T/C [14] 86.8% | viability, T/C [15] 72% | viability, T/C [16] 70.1% | viability, T/C (second compound 3.16 µM, first compound 0.00316 µM) 110% | viability, T/C (second compound 3.16 µM, first compound 0.01 µM) 92.8% | viability, T/C [17] 81.5% | viability, T/C [18] 92.8% | viability, T/C [19] 77.5% | viability, T/C [20] 61.3% | viability, T/C (second compound 10 µM, first compound 0.00316 µM) 103% | viability, T/C (second compound 10 µM, first compound 0.01 µM) 95.5% | viability, T/C [21] 84.4% | viability, T/C [22] 79.6% | viability, T/C [23] 96.6% | viability, T/C [24] 61.6%

C[C@@H](NC(=O)c1ncnc(N)c1Cl)c1ncc(C(=O)Nc2cc(C(F)(F)F)c(Cl)cn2)s1 + C#Cc1c(F)ccc2cc(O)cc(-c3ncc4c(N5CC6CCC(C5)N6)nc(OCC56CCCN5CC(F)C6)nc4c3F)c12
inactive: viability, T/C [1] 123% | viability, T/C [2] 101% | viability, T/C [3] 102% | viability, T/C [4] 78.9% | viability, T/C (second compound 0.0316 µM, first compound 3.16 µM) 87.8% | viability, T/C (second compound 0.0316 µM, first compound 10 µM) 58.8% | viability, T/C [5] 106% | viability, T/C [6] 100% | viability, T/C [7] 86.7% | viability, T/C [8] 81.7% | viability, T/C (second compound 0.1 µM, first compound 3.16 µM) 73.5% | viability, T/C (second compound 0.1 µM, first compound 10 µM) 62.1% | viability, T/C [9] 97.2% | viability, T/C [10] 86.3% | viability, T/C [11] 73% | viability, T/C [12] 84.1% | viability, T/C (second compound 0.316 µM, first compound 3.16 µM) 69.9% | viability, T/C (second compound 0.316 µM, first compound 10 µM) 63% | viability, T/C [13] 84.8% | viability, T/C [14] 81.8% | viability, T/C [15] 101% | viability, T/C [16] 75.3% | viability, T/C (second compound 1 µM, first compound 3.16 µM) 74.7% | viability, T/C (second compound 1 µM, first compound 10 µM) 57.2% | viability, T/C [17] 103% | viability, T/C [18] 96.8% | viability, T/C [19] 94.7% | viability, T/C [20] 80.5% | viability, T/C (second compound 3.16 µM, first compound 3.16 µM) 69.8% | viability, T/C (second compound 3.16 µM, first compound 10 µM) 63% | viability, T/C [21] 97.6% | viability, T/C [22] 87% | viability, T/C [23] 83.6% | viability, T/C [24] 80.3% | viability, T/C (second compound 10 µM, first compound 3.16 µM) 75% | viability, T/C (second compound 10 µM, first compound 10 µM) 58.1%
> 10 µM: IC50 (second compound 0.0316 µM) | IC50 (second compound 0.1 µM) | IC50 (second compound 0.316 µM) | IC50 (second compound 1 µM) | IC50 (second compound 3.16 µM) | IC50 (second compound 10 µM)
